Laboratory results reported in PubChem BioAssay (NCI).
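Exposure lasted 48 hours, with cells grown in 96-well plates and compounds tested at five concentrations. TGI is the concentration that stops growth completely.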

Legend:
Assay in all cases: NCI tumour cell line growth inhibition, 48 h
[1] = system: CAKI-1 renal
[2] = system: CCRF-CEM leukemia
[3] = system: EKVX NSCLC
[4] = system: HCT-116 colon
[5] = system: HOP-62 NSCLC
[6] = system: K-562 leukemia
[7] = system: M14 melanoma
[8] = system: MALME-3M melanoma
[9] = system: OVCAR-5 ovarian
[10] = system: OVCAR-8 ovarian
[11] = system: SNB-19 CNS
[12] = system: SNB-75 CNS
[13] = system: TK-10 renal
[14] = system: UACC-257 melanoma
[15] = system: MOLT-4 leukemia
[16] = system: HS 578T breast
[17] = system: MDA-MB-231 breast
[18] = system: T-47D breast

| SMILES | TGI [1] [µM] | TGI [2] [µM] | TGI [3] [µM] | TGI [4] [µM] | TGI [5] [µM] | TGI [6] [µM] | TGI [7] [µM] | TGI [8] [µM] | TGI [9] [µM] | TGI [10] [µM] | TGI [11] [µM] | TGI [12] [µM] | TGI [13] [µM] | TGI [14] [µM] | TGI [15] [µM] | TGI [16] [µM] | TGI [17] [µM] | TGI [18] [µM] |
| --- | --- | --- | --- | --- | --- | --- | --- | --- | --- | --- | --- | --- | --- | --- | --- | --- | --- | --- |
| C/C(=N\NS(=O)(=O)c1ccc(C)cc1)C(CN1CCOCC1)C(c1ccccc1)c1c(O)c2ccccc2oc1=O (configuration not stated) | > 100 | > 100 | > 100 | > 100 | > 100 | > 100 | > 100 | > 100 | > 100 | > 100 | > 100 | > 100 | > 100 | > 100 |  |  |  |  |
| CNC(=O)CN(CC(=O)NC)C(=O)NC | > 100 | > 100 | > 100 |  | > 100 | > 100 | > 100 | > 100 | > 100 | > 100 | > 100 | > 100 | > 100 | > 100 | > 100 |  |  |  |
| CSC1=C(C(=O)Nc2ccc(Cl)cc2)C(N)=NC1=O | > 100 | > 100 | > 100 | > 100 |  | > 100 | > 100 | > 100 | > 100 | > 100 | > 100 | > 100 | > 100 | > 100 | > 100 | > 100 | > 100 | > 100 |
| C/C(CC(=O)Nc1ccc(Cl)c(Cl)c1)=N/NC(=O)C[n+]1ccccc1 | > 100 | > 100 | > 100 | > 100 | > 100 | > 100 | > 100 | > 100 | > 100 | > 100 | > 100 |  | > 100 | > 100 | > 100 |  |  |  |
| COc1cc(OC)cc(Oc2nc3ccccc3nc2C(=O)O)c1 | > 100 | > 100 | > 100 | > 100 | > 100 | > 100 | > 100 | > 100 | > 100 | > 100 | > 100 | > 100 | > 100 | > 100 | > 100 | > 100 | > 100 | > 100 |
| CCN(CC)CC(=O)Nc1c(C(N)=O)nnn1Cc1cc(Cl)c(C(=O)c2ccc(Cl)cc2)c(Cl)c1 | 65.1 | 41.5 | > 100 | 32.1 | 34.2 | 37.4 | 30.9 |  | 40.7 | 34.7 | > 100 | 59 | 57.4 | 32.6 | 56 | 33 | 34.8 | 61.9 |
| C=CCCC(OCOCCOC)c1cc(C)c(O[Si](C)(C)C(C)(C)C)c(C)c1 (configuration not stated) |  | 30.6 | 63.5 |  | 35.2 | 26.2 | > 100 | 41.4 | 32.4 | 39.8 | 20.7 | 35.6 | 41.2 | 26.6 | 19.4 |  |  |  |
